The target in the assay is HSP90 (Homo sapiens (Human), UniProt P07900). The assay can be described thus: HSP90 competition binding (fluorescence polarization) assay. The note with it: FITC labeled GM, 24 hours at 4° C. The source says: (b) HSP90 Competition Binding (Fluorescence Polarization) Assay.
A fluorescein isothiocyanate (FITC) labeled GM was purchase from InvivoGen (ant-fgl-1). The interaction between HSP90 and labeled GM forms the basis for the fluorescence polarization assay. A free and fast-tumbling FITC labeled GM emits random light with respect to the plane of polarization plane of excited light, resulting in a lower polarization degree (mP) value. When GM is bound to HSP90, the complex tumble slower and the emitted light is polarized, resulting in a higher mP value. […] The assay buffer contained 20 mM HEPES (pH 7.3), 50 mM KCl, 1 mM DTT, 50 mM MgCl2, 20 mM Na2MoO4, 0.01% NP40 with 0.1 mg/ml bovine gamma-globulin.
In general terms: Polarisation of emitted light reports the rotation of a fluorescent probe.

SMILES strings stand for the structures.

One may read the IC50 as the concentration that inhibits the measured activity by half.

With `CC(C)(C)CNCCCn1c(Sc2cc3c(cc2I)OCO3)nc2c(N)nccc21` [Compound 56, 2-(6-iodobenzo[d][1,3]dioxol-5-ylthio)-1-(3-(neopentylamino)propyl)-1H-imidazo[4,5-c]pyridin-4-amine], the IC50 was 100 to 1000 nM.

For the origin of these results see US10035797B2, “Fused amino pyridine as HSP90 inhibitors” (Curis, Inc., priority 2007, dated 2018).
